Laboratory results taken from patent publication US20050009837A1, “Modulators of lipid metabolism and methods of use” (City of Hope, priority 2003, published 2005).

Key:
[1] = target: T1, RXR (Homo sapiens, UniProt P19793); test: Transient transfection assay RXR LBD alone, UASGx4 TK Luc reporter, CV-1 cells; type: cell-based; conditions: lipid-stripped serum
T1 construct: transfecting CV-1 cells with either the RXR LBD alone; expressed in transfected cells; host or cells: CV-1 cells
Procedure: Synthetic compounds were screened in an effort to find more specific LXR inhibitors. CV-1 cells were maintained and transfected using known methods. Forman et al., Cell 81: 687-693, 1995. CV-1 cells were transiently transfected with Gal-hLXRα, the RXR LBD, the UASGx4 TK Luc reporter and CMX-β-gal as an internal control, either in standard or in lipid-stripped serum. After transfection, cells were treated for approximately 40 hours with phenol red-free DMEM-FBS containing the indicated compounds at the following concentrations: T0901317 (100 nM), Clotrimazole (10 μM), S883417(10 μM) and S100250 (10 μM), unless otherwise specified. After exposure to ligand, the cells were harvested and assayed for luciferase and β-galactosidase activity. The luciferase activity was normalized to the internal β-galactosidase control (reporter activity).
The ability of these compounds to repress LXRα and LXRβ was compared by transfecting CV-1 cells with either the RXR LBD alone or the RXR LBD together with either Gal-LXRα or Gal-LXRβ.

[2] = target: T2, human LXRα (Homo sapiens, UniProt Q13133); test: Full-length hLXRα/hRXRα LXREx3 TK-Luc reporter assay in transfected CV-1 cells; type: cell-based; conditions: 20 μM, 40 hours
T2 construct: expressed in transfected cells; host or cells: CV-1 cells
T2 sequence (Q13133 1-447): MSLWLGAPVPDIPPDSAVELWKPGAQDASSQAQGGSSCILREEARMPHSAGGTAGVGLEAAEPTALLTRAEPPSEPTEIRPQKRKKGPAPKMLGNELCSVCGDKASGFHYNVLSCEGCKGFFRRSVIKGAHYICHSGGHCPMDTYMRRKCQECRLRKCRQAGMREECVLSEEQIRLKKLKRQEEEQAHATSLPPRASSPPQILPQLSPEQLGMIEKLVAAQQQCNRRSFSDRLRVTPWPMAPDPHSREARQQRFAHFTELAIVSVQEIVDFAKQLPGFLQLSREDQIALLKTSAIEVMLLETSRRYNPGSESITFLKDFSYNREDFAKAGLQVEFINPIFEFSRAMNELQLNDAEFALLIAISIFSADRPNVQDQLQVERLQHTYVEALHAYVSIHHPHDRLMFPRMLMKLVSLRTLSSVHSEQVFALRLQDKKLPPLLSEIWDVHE
T2 sequence (P19793 1-462 partner): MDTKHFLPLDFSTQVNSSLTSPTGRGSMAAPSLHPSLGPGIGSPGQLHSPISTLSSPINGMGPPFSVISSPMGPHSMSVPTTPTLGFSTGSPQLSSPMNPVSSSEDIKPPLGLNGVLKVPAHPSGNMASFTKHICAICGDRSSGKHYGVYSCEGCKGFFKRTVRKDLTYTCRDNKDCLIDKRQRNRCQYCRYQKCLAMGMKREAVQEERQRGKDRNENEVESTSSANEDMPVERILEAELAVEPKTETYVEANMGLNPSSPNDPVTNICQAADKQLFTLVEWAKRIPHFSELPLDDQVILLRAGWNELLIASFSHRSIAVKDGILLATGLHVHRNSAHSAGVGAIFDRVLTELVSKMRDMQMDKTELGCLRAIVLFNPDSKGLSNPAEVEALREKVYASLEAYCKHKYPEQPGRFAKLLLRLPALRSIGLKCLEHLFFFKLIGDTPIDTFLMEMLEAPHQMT
Procedure: CV-1 cells were grown in DMEM supplemented with 10% resin-charcoal stripped fetal bovine serum, 50 U/ml penicillin G and 50 μg/ml streptomycin sulfate at 37° C. in 5% CO2. Cells were plated to 50-80% confluence one day prior to transfection using phenol red-free DMEM-FBS. The cells were transfected by lipofection using N-[1-(2,3-dioleoyloxy)propyl]-N,N,N-ammonium methyl sulfate according to manufacturer's instructions (Boehringer Mannheim).
Genes encoding the following full-length proteins, which are suitable for use in the studies described herein, were cloned into pCMX: human RXRα (Gene Bank accession X52773) and human LXRα (GenBank accession U22662). The cells were transfected with CMX-βgal and luciferase constructs. The CMX-βGal construct contained the ligand binding domain of human RXR (hRXRα) and the ligand binding domain of human LXRα (hLXRα) as indicated in FIG. 1. The luciferase reporter construct (LXREx3 TK-Luc) contained the herpes virus thymidine kinase promoter (−105/+51) linked to three copies of the response element LXRE. After transfection, the cells were treated with 20 μM of a synthetic azole test compound or vehicle alone for 40 hours in phenol red-free DMEM-FBS.

[3] = target: RXR (Homo sapiens, UniProt P19793); test: RXR activity (data not shown); type: cell-based
[4] = target: T3, LXRβ-RXR heterodimers / SRC-1 (Homo sapiens, UniProt P55055); test: In vitro coactivator recruitment/displacement assay (gel), LXRβ, RXR, GST-SRC-1, 32P-LXRE probe; type: biochemical; conditions: 10 μM
T3 construct: made in house; host or cells: receptors translated in vitro
T3 sequence (P55055 whole entry, one chain of several): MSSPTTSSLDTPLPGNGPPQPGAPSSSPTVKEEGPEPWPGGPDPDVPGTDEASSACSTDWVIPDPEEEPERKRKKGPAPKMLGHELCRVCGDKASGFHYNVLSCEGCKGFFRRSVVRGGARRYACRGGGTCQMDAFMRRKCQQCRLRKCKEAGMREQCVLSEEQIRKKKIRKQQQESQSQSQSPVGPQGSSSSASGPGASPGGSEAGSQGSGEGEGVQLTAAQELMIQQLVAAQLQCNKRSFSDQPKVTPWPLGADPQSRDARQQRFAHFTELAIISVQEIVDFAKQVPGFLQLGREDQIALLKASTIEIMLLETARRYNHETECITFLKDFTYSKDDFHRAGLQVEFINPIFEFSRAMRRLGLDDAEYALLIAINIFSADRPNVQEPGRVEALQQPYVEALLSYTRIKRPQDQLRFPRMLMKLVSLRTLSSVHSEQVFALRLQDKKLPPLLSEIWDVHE
Procedure: This was tested more directly using an in vitro coactivator recruitment/coactivator displacement assay. This assay has the advantage that it is performed with receptors bound to DNA and that it measures a direct interaction between receptor and coactivator with no interference by other proteins that may indirectly stabilize the complex. The assay was performed by mixing in vitro translated LXRα or LXRβ, RXR, 5 μg of purified GST-SRC-1 and a ^32P-labeled LXRE probe with or without 10 μM Clotrimazole according to previously described methods. Wang et al., Mol. Cell 3:543-553, 1999. The complexes then were separated through 5.5% polyacrylamide gels. The probe used represents a DR-4 element derived from the human SREBP-1c promoter (nt 337-361, accession no. AB046200).

Structure (SMILES): Clc1ccccc1C(c1ccccc1)(c1ccccc1)n1ccnc1 [Clotrimazole]
- effect on RXR [1]: no effect
- antagonism of constitutive activation mediated by LXR (hLXRα activity, LXREx3 TK-Luc) [2]: antagonize the constitutive activation mediated by LXR
- effect on RXR activity [3]: no effect
- effect on LXRβ-RXR heterodimers (bound to LXRE probe) ([4]; lane 7): no effect
- interaction of LXRβ-RXR with SRC-1 ([4]; lane 8): prevented the interaction with SRC-1
